Data reported in US12565501B2, “Muscarinic acetylcholine M1 receptor antagonists” (Contineum Therapeutics, Inc., priority 2019, dated 2026).

Experiments:
Assay type in all cases: cell-based
human M1 receptor = target: T1, human M1 receptor (Homo sapiens, UniProt P11229); assay: In vitro functional assay of muscarinic acetylcholine receptor activity (aequorin calcium flux, reversal of EC80 acetylcholine response); settings: CHO-K1 cells stably expressing human M1 receptor with aequorin; acetylcholine at EC80; calcium flux (luminescence); read-out: M1 IC50
T1 sequence (P11229 1-460): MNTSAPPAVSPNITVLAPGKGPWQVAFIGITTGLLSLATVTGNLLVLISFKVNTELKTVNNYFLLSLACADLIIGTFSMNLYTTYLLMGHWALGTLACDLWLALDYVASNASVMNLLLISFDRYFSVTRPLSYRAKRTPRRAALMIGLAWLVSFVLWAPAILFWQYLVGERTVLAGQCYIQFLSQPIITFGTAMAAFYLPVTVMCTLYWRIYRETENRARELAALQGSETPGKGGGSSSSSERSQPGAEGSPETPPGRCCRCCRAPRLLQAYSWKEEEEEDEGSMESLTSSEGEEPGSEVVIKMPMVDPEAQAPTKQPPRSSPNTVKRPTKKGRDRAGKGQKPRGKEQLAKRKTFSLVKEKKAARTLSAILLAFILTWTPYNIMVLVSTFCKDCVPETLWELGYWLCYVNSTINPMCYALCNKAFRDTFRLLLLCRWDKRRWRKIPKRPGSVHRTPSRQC
Method in brief: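 Antagonist mode: compound (final 0.1% DMSO) and coelenterazine-loaded M1/aequorin CHO-K1 cells incubated 30 min in the dark before EC80 acetylcholine addition. Calcium flash integrated as 40 s luminescence AUC; IC50 derived from dose-response curves.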

human M3 receptor = human M3 receptor (Homo sapiens, UniProt P20309); assay: In vitro functional assay, reversal of EC80 acetylcholine response in CHO-K1 aequorin cells
Procedure: (§1) CHO-K1 cells stably expressing human M1 receptor with aequorin (Perkin Elmer) were grown in F12 media (Gibco) containing 10% FBS (ATCC), 0.4 mg/mL geneticin (Sigma-Aldrich) and 0.25 mg/mL Zeocin (Invitrogen). Cells were grown as per the manufacturer's protocol. For compound testing, cells were grown to confluency and detached gently with Accutase (Sigma-Aldrich) followed by centrifugation for 5 min at 150× g. Cells were then re-suspended in assay buffer (i.e. DMEM/F-12 HEPES without phenol red (Invitrogen) with 0.1% BSA (Sigma-Aldrich)) at a density of 5×10^6 cells/ml. Under sterile conditions, 5 μM coelenterazine (Invitrogen) was added to the cells, mixed, then incubated at room temperature protected from light, with gentle agitation, for 4 h.
(§2) Primary compound plates were prepared in 100% DMSO in opaque 96-well plates (VWR) and serially diluted in half log increments. Secondary compound plates were prepared at 3× concentration in assay buffer. Compounds were added to white, clear bottom tissue culture treated 96-well plates (Fisher Scientific). Coelenterazine-loaded cells were then added at 5×10^5 cells/well.
(§3) Compounds and cells were incubated at room temperature for 30 min in the dark. Acetylcholine at the EC80 concentration was added and calcium flux measured using a FlexStation 3 (Molecular Devices). Sigmoidal dose-response curves were generated by measuring luminescence over 40 sec and calculating the area under the curve. Dose response curves and IC50 values were generated using Prism (GraphPad). Compounds were tested at a final concentration range of 100 μM to […] in 0.1% DMSO.
(§4) CHO-K1 cells stably expressing human M2, M3 and M4 receptors, respectively, with aequonin (Perkin Elmer) were used to assess a test compound's ability to dose-dependently reverse the EC80 acetylcholine response. The IC50 of the compounds was calculated from the dose response curve.

human M2 receptor = target: T2, human M2 receptor (Homo sapiens, UniProt P08172); assay: as above
T2 sequence (P08172 1-466): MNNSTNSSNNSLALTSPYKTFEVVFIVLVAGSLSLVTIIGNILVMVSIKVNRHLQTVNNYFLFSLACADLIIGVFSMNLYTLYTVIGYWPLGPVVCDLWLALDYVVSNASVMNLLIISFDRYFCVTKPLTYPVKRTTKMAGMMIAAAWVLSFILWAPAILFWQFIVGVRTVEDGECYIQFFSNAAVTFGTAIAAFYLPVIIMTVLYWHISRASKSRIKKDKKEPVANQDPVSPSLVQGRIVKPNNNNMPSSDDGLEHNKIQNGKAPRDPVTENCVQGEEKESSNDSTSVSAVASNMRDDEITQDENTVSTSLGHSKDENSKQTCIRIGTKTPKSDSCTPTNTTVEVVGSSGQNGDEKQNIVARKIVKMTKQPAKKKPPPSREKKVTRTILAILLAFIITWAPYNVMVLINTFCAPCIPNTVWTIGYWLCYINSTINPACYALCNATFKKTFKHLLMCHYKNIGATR
Procedure: as §1, §2, §3, §4

human M4 receptor = target: T3, human M4 receptor (Homo sapiens, UniProt P08173); assay: as above
T3 sequence (P08173 1-479): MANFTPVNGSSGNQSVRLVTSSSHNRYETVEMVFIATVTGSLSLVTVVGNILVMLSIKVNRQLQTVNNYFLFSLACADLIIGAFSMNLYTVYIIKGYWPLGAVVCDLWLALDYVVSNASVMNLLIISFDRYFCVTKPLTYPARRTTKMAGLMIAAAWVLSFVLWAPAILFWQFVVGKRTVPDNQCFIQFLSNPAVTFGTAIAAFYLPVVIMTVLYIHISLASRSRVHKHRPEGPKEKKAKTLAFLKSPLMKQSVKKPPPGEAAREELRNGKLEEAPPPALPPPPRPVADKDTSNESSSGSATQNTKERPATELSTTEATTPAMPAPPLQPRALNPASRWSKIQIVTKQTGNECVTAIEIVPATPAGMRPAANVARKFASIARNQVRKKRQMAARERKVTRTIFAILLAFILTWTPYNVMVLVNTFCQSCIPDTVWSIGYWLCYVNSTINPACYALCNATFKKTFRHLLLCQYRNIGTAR
Procedure: as §1, §2, §3, §4

Chain of human M3 receptor (P20309 whole entry): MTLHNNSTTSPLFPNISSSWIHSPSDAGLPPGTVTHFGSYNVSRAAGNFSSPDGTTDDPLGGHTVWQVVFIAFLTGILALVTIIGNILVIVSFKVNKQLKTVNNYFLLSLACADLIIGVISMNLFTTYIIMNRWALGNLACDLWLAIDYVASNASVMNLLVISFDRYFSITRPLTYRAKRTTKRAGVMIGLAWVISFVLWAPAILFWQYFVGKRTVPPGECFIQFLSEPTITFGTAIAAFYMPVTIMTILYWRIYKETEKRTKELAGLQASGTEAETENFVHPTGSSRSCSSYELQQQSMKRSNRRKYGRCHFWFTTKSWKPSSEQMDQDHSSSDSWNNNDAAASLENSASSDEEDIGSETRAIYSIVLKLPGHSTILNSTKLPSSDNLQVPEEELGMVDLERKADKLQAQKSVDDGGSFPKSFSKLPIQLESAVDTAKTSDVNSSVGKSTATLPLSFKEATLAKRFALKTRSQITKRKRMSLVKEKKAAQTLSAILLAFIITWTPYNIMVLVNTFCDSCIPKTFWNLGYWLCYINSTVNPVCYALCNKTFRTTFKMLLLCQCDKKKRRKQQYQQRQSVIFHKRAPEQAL

Row | SMILES | IC50 (human M1 receptor) [µM] | IC50 (human M3 receptor) [µM] | IC50 (human M2 receptor) [µM] | IC50 (human M4 receptor) [µM]
1 | N#Cc1ccc(N2C3CCC2CN(C(=O)COC2(c4cc(F)cc(F)c4)CC2)C3)nc1 [Example 210, 6-(3-(2-(1-(3,5-difluorophenyl)cyclopropoxy)acetyl)-3,8-diazabicyclo[3.2.1]octan-8-yl)nicotinonitrile] | 0.01 to 0.1 | 1 to 10 | > 1 | 
2 | COc1cccnc1C(F)(F)CCC(=O)N1CC2CCC(C1)N2c1ccc(C#N)cn1 [Example 162, 6-(3-(4,4-difluoro-4-(3-methoxypyridin-2-yl)butanoyl)-3,8-diazabicyclo[3.2.1]octan-8-yl)nicotinonitrile] | < 0.01 | 0.1 to 1 | 1 to 10 | 0.1 to 1
3 | N#Cc1ccc(N2C3CCC2CN(C(=O)COC2(c4ccc(F)c(F)c4)CC2)C3)nc1 [Example 177, 6-(3-(2-(1-(3,4-difluorophenyl)cyclopropoxy)acetyl)-3,8-diazabicyclo[3.2.1]octan-8-yl)nicotinonitrile] | 0.01 to 0.1 | 1 to 10 | 1 to 10 | 1 to 10
4 | N#Cc1ccc(N2C3CCC2CN(C(=O)CNC2(c4ccc(F)cc4F)CC2)C3)nc1 [Example 59, 6-(3-((1-(2,4-difluorophenyl)cyclopropyl)glycyl)-3,8-diazabicyclo[3.2.1]octan-8-yl)nicotinonitrile] | < 0.01 | 1 to 10 | 1 to 10 | 1 to 10
5 | C[C@H](NCC(=O)N1CC2CCC(C1)N2c1ccc(C#N)cn1)c1ccc(F)cc1F [Example 87, 6-(3-(((S)-1-(2,4-difluorophenyl)ethyl)glycyl)-3,8-diazabicyclo[3.2.1]octan-8-yl)nicotinonitrile] | < 0.01 | 1 to 10 | 1 to 10 | 1 to 10
6 | COc1ccnc(C(F)(F)CCC(=O)N2CC3CCC(C2)N3c2ccc(C#N)cn2)c1 [Example 147, 6-(3-(4,4-difluoro-4-(4-methoxypyridin-2-yl)butanoyl)-3,8-diazabicyclo[3.2.1]oxtan-8-yl)nicotinonitrile] | < 0.01 | 0.1 to 1 | 1 to 10 | 0.1 to 1
7 | COc1cc(C2(NCC(=O)N3CC4CCC(C3)N4c3ccc(C#N)cn3)CCC2)ccn1 [Example 118, 6-(3-((1-(2-methoxypyridin-4-yl)cyclobutyl)glycyl)-3,8-diazabicyclo[3.2.1]octan-8-yl)nicotinonitrile] | 0.01 to 0.1 | 1 to 10 | 1 to 10 | 0.1 to 1
8 | N#Cc1ccc(N2C3CCC2CN(C(=O)CCNC2(c4ccc(F)c(F)c4)CC2)C3)nc1 [Example 1, 6-(3-(3-((1-(3,4-difluorophenyl)cyclopropyl)amino)propanoyl)-3,8-diazabicyclo[3.2.1]octan-8-yl)nicotinonitrile] | < 0.01 | 1 to 10 | 0.1 to 1 | 0.1 to 1
9 | N#Cc1ccc(N2C3CC[C@H]2CN(C(=O)COC2(c4ccc(F)c(F)c4)CCC2)C3)nc1 [Example 239] | < 0.01 | 1 to 10 | 1 to 10 | 1 to 10
10 | N#Cc1ccc(N2C3CCC2CN(C(=O)COC2(c4ncccc4F)CCC2)C3)nc1 [Example 250, 6-(3-(2-(1-(3-fluoropyridin-2-yl)cyclobutoxy)acetyl)-3,8-diazabicyclo[3.2.1]octan-8-yl)nicotinonitrile] | 0.1 to 1 | 1 to 10 | > 1 | 
11 | C[C@@H](OCCC(=O)N1C[C@H]2CC[C@@H](C1)N2c1ccc(C#N)cn1)c1ccccc1 [Example 304, 6-(3-(3-((R)-1-phenylethoxy)propanoyl)-3,8-diazabicyclo[3.2.1]octan-8-yl)nicotinonitrile] | 0.01 to 0.1 | > 1 | 1 to 10 | 
12 | COc1cc(C(F)(F)CCC(=O)N2CC3CCC(C2)N3c2ccc(C#N)cn2)ccn1 [Example 138, 6-(3-(4,4-difluoro-4-(2-methoxypyridin-4-yl)butanoyl)-3,8-diazabicyclo[3.2.1]octan-8-yl)nicotinonitrile] | < 0.01 | 0.1 to 1 | 1 to 10 | 0.1 to 1
13 | N#Cc1ccc(N2C3CCC2CN(C(=O)COC2(c4cccc(C#N)c4)CC2)C3)nc1 [Example 295, 6-(3-(2-(1-(3-cyanophenyl)cyclopropoxy)acetyl)-3,8-diazabicyclo[3.2.1]octan-8-yl)nicotinonitrile] | 0.1 to 1 |  |  | 
14 | N#Cc1ccc(N2C3CCC2CN(C(=O)CNC2(c4ccc(F)cc4)CC2)C3)nc1 [Example 96, 6-(3-((1-(4-fluorophenyl)cyclopropyl)glycyl)-3,8-diaabicyclo[3.2.1]octan-8-yl)nicotinonitrile] | 0.1 to 1 |  |  | 
15 | CC(c1ccccc1Br)[S+]([O-])CCC(=O)N1CC2CCC(C1)N2c1ccc(C#N)cn1 (racemic) [Example 171, 6-(3-(3-((1-(2-bromophenyl)ethyl)sulflnyl)propanoyl)-3,8-diazabicyclo[3.2.1]octan-8-yl) nicotinonitrile] | > 1 |  |  | 
16 | Cc1ccc(N2[C@@H]3CC[C@H]2CN(C(=O)CCNC2(c4ccc(F)c(F)c4)CC2)C3)nn1 [Example 47, 3-((1-(3,4-difluorophenyl)cyclopropyl)amino)-1-(8-(6-methylpyridazin-3-yl)-3,8-diazabicyclo[3.2.1]octan-3-yl)propan-1-one] | 0.01 to 0.1 |  |  | 
17 | Cn1c(C2(OCC(=O)N3CC4CCC(C3)N4c3ccc(C#N)cn3)CCC2)cccc1=O [Example 299, 6-(3-(2-(1-(1-methyl-6-oxo-1,6-dihydropyridin-2-yl)cyclobutoxy)acetyl)-3,8-diazabicyclo[3.2.1]octan-8-yl)nicotinonitrile] | 0.01 to 0.1 |  |  | 
18 | N#Cc1ccc(N2C3CCC2CN(C(=O)CCC(F)(F)c2cccc4ncnn24)C3)nc1 [Example 163, 6-(3-(4-([1,2,4]triazolo[1,5-a]pyridin-5-yl)-4,4-difluorobutanoyl)-3,8-diazabicyclo[3.2.1]octan-8-yl)nicotinonitrile] | < 0.01 |  |  | 
19 | N#Cc1ccc(N2[C@@H]3CC[C@H]2CN(C(=O)CCNC2(c4ccc(F)c(F)c4)CC2)C3)cn1 [Example 46, 5-(3-(3-((1-(3,4-difluorophenyl)cyclopropyl)amino)propanoyl)-3,8-diazabicyclo[3.2.1]octan-8-yl)picolinonitrile] | < 0.01 |  |  | 
20 | N#Cc1ccc(N2C3CCC2CN(C(=O)COC2(c4ccc(Br)cc4)CC2)C3)nc1 [Example 208, 6-(3-(2-(1-(4-bromophenyl)cyclopropoxy)acetyl)-3,8-diazabicyclo[3.2.1]octan-8-yl)nicotinonitrile] | 0.1 to 1 |  |  | 
